Experimental data taken from patent US8563241B2 (Institut de Cardiologie de Montreal, priority 2009, dated 2013).

Assays:
[1] = Pilot genetic study of INR fluctuations in 324 post INR-stabilization atrial fibrillation patients by CYP4F2 rs2108622 and NR1I2 rs6772976 genotype; type: in vivo, human
Description: (§1) The study was focused on the post INR-stabilization period by excluding the first six months of therapy, and further excluded hospitalization periods. […] INR fluctuations were measured according to the Rosendaal method based on linear interpolation.
For the pilot genetic study, 324 patients with atrial fibrillation were selected, for whom therapy was started prior to Aug. 1, 2005, with a follow up of 36 months or more and with at most 70 years of age. […] Genotyping was conducted using the Sequenom technology.

[2] = Retrospective study of INR fluctuations outside the target therapeutic INR range in 1,615 patients of the MHI warfarin clinic (Rosendaal method); type: in vivo, human; settings: post-stabilization follow up period (first six months and hospitalization periods excluded)
Description: as §1

CC(=O)CC(c1ccccc1)c1c(O)c2ccccc2oc1=O (stereo not shown) [warfarin]
average % of the time above the patient-specific target therapeutic INR range ([1]; patients with CYP4F2 rs2108622 CC genotype): 17.1% | average % of the time above the patient-specific target therapeutic INR range ([1]; patients with CYP4F2 rs2108622 CT genotype): 15.9% | average % of the time above the patient-specific target therapeutic INR range ([1]; patients with CYP4F2 rs2108622 TT genotype): 29.6% | time above target therapeutic INR range [2]: 17.2%
